Measurements: patent US20240309004A1, “SELECTIVE CYCLIN-DEPENDENT KINASE INHIBITORS AND METHODS OF THERAPEUTIC USE THEREOF” (ViroKyne Therapeutics, LLC, priority 2021, published 2024)
Like-named read-outs stand apart in the source and are kept apart here.

What was measured:
[1] = system: HCMV strain AD169; test: HCMV primary assay (CPE), strain AD169, HFF cells; format: cell-based, Human Cytomegalovirus
Experimental: The antiviral activity of the compound against HCMV in the described Primary assay was measured by treating primary Human foreskin fibroblast (HFF) cells infected with HCMV with a range of compound concentrations—description of methods for this assay can be found in section 1.3.2.1. […] . Additional tested assay parameters in this Primary assay can be found in Table 3.2.1 and include EC90, S150, and S190 values—descriptions of those data points can be found in section 3.2.1.

[2] = Cytotoxicity concurrent with HCMV AD169 primary assay; format: cell-based, human; details: human
[3] = system: VZV strain Ellen; test: VZV primary assay, strain Ellen, HFF cells; format: cell-based, Varicella Zoster Virus
Experimental: (§1) Assays were performed in monolayers as described. […] Toxicity was measured using CTG as above. […] Toxicity was measured using CTG as above.
(§2) Monolayers of HFF cells were prepared in six-well plates and incubated at 37° C. for 2 d to allow the cells to reach confluency. Media was then aspirated from the wells and 0.2 mL of virus-containing solution was added to each of three wells to yield 20-30 plaques in each well. The virus was allowed to adsorb to the cells for 1 h and the plates were agitated every 15 minutes. Compounds were diluted in assay media consisting of MEM with Earl's salts supplemented with 2% FBS, glutamine, penicillin, and gentamycin. Diluted drug was added to duplicate wells and the plates were incubated for various times, depending on the virus used. For HSV-1 and -2, the monolayers were then stained with 1% crystal violet in 20% methanol and the unbound dye removed by washing with dH20. For all other assays, the cell monolayer was stained with 1% Neutral Red solution for 4-6 h then the stain was aspirated and the cells were washed with PBS.

[4] = Cytotoxicity concurrent with VZV Ellen primary assay; format: cell-based; details: human
Experimental: as §1

[5] = system: HSV1 strain E-377; test: HSV1 primary assay, strain E-377, HFF cells; format: cell-based, Herpes Simplex Virus 1
Experimental: as §1, §2

[6] = Cytotoxicity concurrent with HSV1 E-377 primary assay; format: cell-based; details: human
Experimental: as §1

[7] = system: HSV2 strain G; test: HSV2 primary assay, strain G, HFF cells; format: cell-based, herpes simplex virus 2
Experimental: as §1, §2

[8] = Cytotoxicity concurrent with HSV2 primary assay; format: cell-based; details: human
Experimental: as §1

[9] = system: Epstein-Barr virus Akata strain; test: Epstein-Barr primary assay, Akata strain, Akata cells; format: cell-based
[10] = system: Adenovirus Adenoid75 strain; test: Adenovirus primary assay, Adenoid75 strain, HFF cells; format: cell-based; details: unidentified adenovirus
[11] = Cytotoxicity concurrent with Adenovirus primary assay; format: cell-based; details: human
[12] = Cytotoxicity concurrent with EBV primary assay; details: human, Akata cells without virus induction
[13] = Metabolic stability in mice liver microsomes; details: mice liver microsomes, 1 μM compound, 1 mM NADPH, 60 min
Experimental: Potassium phosphate buffer (Kphos) was prepared by adding 0.647 g potassium phosphate monobasic (KH2PO4) and 3.527 g potassium phosphate dibasic (K2HPO4) to 400 mL of Milli-Q water. pH of the buffer was adjusted to 7.4 and volume was made up to 500 mL.
Stock solutions of the test compounds were prepared in DMSO at a concentration of 1 mM.
To this microsomal mix 1.42 μL (1 mM) of test compound and positive control were spiked, from this mix 70 μL was transferred to 96 well plate and pre-incubated at 37° C. for 5 min. […] The plates were centrifuged at 4000 RPM for 15 min and 100 μL aliquots were submitted for analysis by LC-MS/MS.
Samples were monitored for parent compound disappearance in MRM mode using LC-MS/MS. The LC-MS/MS conditions and MRM chromatogram will be provided as per client request.
The peak area ratios of analyte versus internal standard were used to calculate the % remaining at the end of 60 minutes in presence NADPH.

[14] = Human betaherpesvirus 5, HCMV primary assay, virus strain AD169, HFF cells, read-out: EC50
[15] = Human betaherpesvirus 5, HCMV primary assay, virus strain AD169, HFF cells, read-out: EC90
[16] = Human alphaherpesvirus 3, VZV primary assay, strain Ellen, cell line HFF, read-out: EC50
[17] = Human alphaherpesvirus 3, VZV primary assay, strain Ellen, cell line HFF, read-out: EC90
[18] = Human alphaherpesvirus 1, HSV1 primary assay, strain E-377, HFF cells, read-out: EC50
[19] = Human alphaherpesvirus 1, HSV1 primary assay, strain E-377, HFF cells, read-out: EC90
[20] = Human alphaherpesvirus 2, HSV2 primary assay, strain G, HFF cells, read-out: EC50
[21] = Human alphaherpesvirus 2, HSV2 primary assay, strain G, HFF cells, read-out: EC90
[22] = human gammaherpesvirus 4, Epstein-Barr primary assay, Akata strain, Akata cells, read-out: EC50
[23] = human gammaherpesvirus 4, Epstein-Barr primary assay, Akata strain, Akata cells, read-out: EC90
[24] = Adenovirus primary assay, HFF cells, Adenoid75 strain, read-out: EC50
[25] = Adenovirus primary assay, HFF cells, Adenoid75 strain, read-out: EC90
[26] = Human betaherpesvirus 5, AD169, HFF
[27] = human gammaherpesvirus 4, Akata

Row | EC50 [1, 14] [µM] | EC90 [1, 15] [µM] | SMILES | CC50 ([2]; CC50) [µM] | CC50 [4] [µM] | EC50 [5, 18] [µM] | EC90 [5, 19] [µM] | CC50 [6] [µM] | CC50 [8] [µM] | CC50 [11] [µM] | CC50 at 72 h [12] [µM] | also measured
1 | 10 | 10 | Fc1ccc2c(c1)nn1cnc(NC3COCCOC3)cc21 [VKT-016] | 48.5 | – | – | – | – | – | – | – | –
2 | 0.08 | 0.08 | CN(CC1CCC(N(C)c2cc3c4ccc(F)cc4nn3cn2)CC1)C(=O)OC(C)(C)C (stereo not drawn) [VKT-009-B] | 0.17 | – | – | – | – | – | – | – | –
3 | 10 | 10 | CN(C)CC(=O)N1CCC(Nc2cc3c4ccc(F)cc4nn3cn2)CC1 [VKT-028] | 32 | – | – | – | – | – | – | – | –
4 | – | – | OCCC1CCC(Nc2cc3c4ccc(F)cc4nn3cn2)CC1 (stereo not drawn) [VKT-032] | – | – | – | – | – | – | – | – | EC50 [1, 26]: 10 µM; EC90 [1, 26]: 10 µM; CC50 ([2]; HCMV primary assay, HFF cells, read-out: CC50): 26.2 µM
5 | – | – | CN(C)C1CCC(Nc2cc3c4ccc(F)cc4nn3cn2)CC1 (stereo not drawn) [VKT-007] | – | – | 10 | 10 | 16.1 | – | – | – | % Remaining at 60 min [13]: 54%
6 | 0.4 | 0.4 | CN(c1cc2c3ccc(F)cc3nn2cn1)C1CCC(CNC(=O)OC(C)(C)C)CC1 (stereo not drawn) [VKT-009-A] | 0.57 | – | – | – | – | – | – | – | –
7 | 2 | 2 | CC(C)(C)OC(=O)NCC1CCC(Nc2cc3c4ccc(F)cc4nn3cn2)CC1 (stereo not drawn) [VKT-001] | 6.19 | – | – | – | – | – | – | – | –
8 | – | – | N[C@@H]1CC[C@H](Nc2cc3c4ccc(F)cc4nn3cn2)C1 [VKT-034] | – | – | 10 | 10 | 18.7 | – | – | – | % Remaining at 60 min [13]: 81%
9 | 10 | 10 | CC1CC(Nc2cc3c4ccc(F)cc4nn3cn2)CCO1 (stereo not drawn) [VKT-011] | 38.6 | – | – | – | – | – | – | – | –
10 | – | – | N[C@H]1CC[C@H](Nc2cc3c4ccc(F)cc4nn3cn2)C1 [VKT-036] | – | – | 10 | 10 | 29.4 | – | – | – | % Remaining at 60 min [13]: 82%
11 | – | – | CN1CCC(Nc2cc3c4ccc(F)cc4nn3cn2)CC1 [VKT-023] | 46 | 44.7 | – | – | 50 | 50 | 50 | 50 | EC50 [1, 26]: 10 µM; EC90 [1, 26]: 10 µM; EC50 ([3]; Human alphaherpesvirus 3, HFF): 10 µM; EC90 ([3]; Human alphaherpesvirus 3, HFF): 10 µM; EC50 ([5]; Human alphaherpesvirus 1, HFF): 50 µM; EC90 ([5]; Human alphaherpesvirus 1, HFF): 50 µM; EC50 ([7]; Human alphaherpesvirus 2, HFF): 50 µM; EC90 ([7]; Human alphaherpesvirus 2, HFF): 50 µM; EC50 [9, 27]: 29.5 µM; EC90 [9, 27]: 50 µM; EC50 ([10]; HFF): 50 µM; EC90 ([10]; HFF): 50 µM
12 | 10 | 10 | CCN1CCC(Nc2cc3c4ccc(F)cc4nn3cn2)CC1 [VKT-025] | 48.1 | – | – | – | – | – | – | – | –
13 | 10 | 10 | CC1CC(Nc2cc3c4ccc(F)cc4nn3cn2)CC(C)O1 (stereo not drawn) [VKT-013] | 48.1 | – | – | – | – | – | – | – | –
14 | 10 | 10 | Fc1ccc2c(c1)nn1cnc(NC3CCNCC3)cc21 [VKT-319, 7-fluoro-N-(piperidin-4-yl)pyrimido[1,6-b]indazol-3-amine] | 37.5 | – | – | – | – | – | – | – | –
15 | 50 | 50 | CNC(=O)CN1CCC(Nc2cc3c4ccc(F)cc4nn3cn2)CC1 [VKT-031] | 50 | – | – | – | – | – | – | – | –

Row | SMILES | EC50 [1, 14] [µM] | EC90 [1, 15] [µM] | CC50 ([2]; CC50) [µM] | CC50 [4] [µM] | EC50 [5, 18] [µM] | EC90 [5, 19] [µM] | CC50 [6] [µM] | CC50 [8] [µM] | CC50 [11] [µM] | CC50 at 72 h [12] [µM] | also measured
16 | Fc1ccc2c(c1)nn1cnc(NC3CCSCC3)cc21 [VKT-017] | 10 | 10 | 21.4 | 37.1 | 50 | 50 | 50 | 50 | 46.7 | 50 | EC50 [3, 16]: 10 µM; EC90 [3, 17]: 10 µM; EC50 [7, 20]: 50 µM; EC90 [7, 21]: 50 µM; EC50 [9, 22]: 23.4 µM; EC90 [9, 23]: 41.5 µM; EC50 [10, 24]: 10 µM; EC90 [10, 25]: 10 µM
17 | CN(C)CC1CCC(Nc2cc3c4ccc(F)cc4nn3cn2)CC1 (stereo not drawn) [VKT-008] | 10 | 10 | 38.8 | 37.2 | 50 | 50 | 50 | 50 | 48.6 | 50 | EC50 [3, 16]: 10 µM; EC90 [3, 17]: 10 µM; EC50 [7, 20]: 50 µM; EC90 [7, 21]: 50 µM; EC50 [9, 22]: 8.16 µM; EC90 [9, 23]: 44 µM; EC50 [10, 24]: 10 µM; EC90 [10, 25]: 10 µM
18 | NCC1CCC(Nc2cc3c4ccc(F)cc4nn3cn2)CC1 (stereo not drawn) [VKT-002] | 2 | 2 | 7.42 | 7.9 | 10 | 10 | 20.8 | 24.4 | 21.2 | 6.69 | EC50 [3, 16]: 2 µM; EC90 [3, 17]: 2 µM; EC50 [7, 20]: 10 µM; EC90 [7, 21]: 10 µM; EC50 [9, 22]: 1.78 µM; EC90 [9, 23]: 2 µM; EC50 [10, 24]: 4.44 µM; EC90 [10, 25]: 10 µM
19 | CN(C(=O)OC(C)(C)C)C1CCC(Nc2cc3c4ccc(F)cc4nn3cn2)CC1 (stereo not drawn) [VKT-005] | 0.4 | 0.4 | 1.48 | 1.48 | 10 | 10 | 16 | 7.94 | 3.81 | 39.4 | EC50 [3, 16]: 0.4 µM; EC90 [3, 17]: 0.4 µM; EC50 [7, 20]: 2 µM; EC90 [7, 21]: 2 µM; EC50 [9, 22]: 10 µM; EC90 [9, 23]: 10 µM; EC50 [10, 24]: 2 µM; EC90 [10, 25]: 2 µM
20 | CNC1CCC(Nc2cc3c4ccc(F)cc4nn3cn2)CC1 (stereo not drawn) [VKT-006] | 10 | 10 | 32.5 | 27.2 | 10 | 10 | 38.5 | 42.8 | 30.5 | 33.5 | EC50 [3, 16]: 10 µM; EC90 [3, 17]: 10 µM; EC50 [7, 20]: 10 µM; EC90 [7, 21]: 10 µM; EC50 [9, 22]: 8.32 µM; EC90 [9, 23]: 10 µM; EC50 [10, 24]: 10 µM; EC90 [10, 25]: 10 µM
21 | CC(C)(C)OC(=O)N[C@H]1CCC(Nc2cc3c4ccc(F)cc4nn3cn2)C1 (stereo partly drawn) [VKT-035] | 2 | 2 | 8.14 | 7.6 | 10 | 10 | 15.9 | 17.7 | 17.5 | 31.9 | EC50 [3, 16]: 2 µM; EC90 [3, 17]: 2 µM; EC50 [7, 20]: 10 µM; EC90 [7, 21]: 10 µM; EC50 [9, 22]: 10 µM; EC90 [9, 23]: 10 µM; EC50 [10, 24]: 10 µM; EC90 [10, 25]: 10 µM
